How the values were obtained:
Type in all cases: in vivo
Parameters in all cases: key: 0 is no effect; 10 is complete control
[1] = tested on: crabgrass (Digitaria sanguinalis); assay: Test B pre-/postemergence; conditions: for Crabgrass plant response rating: Preemergence
Procedure, shortened: (§1)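 Compounds in a surfactant-containing, non-phytotoxic solvent blend are applied to freshly planted seed (preemergence) and, concurrently, to seedlings of 2 to 18 cm at 1–4 leaves (postemergence). Plants stay in the greenhouse twelve to sixteen days and are then scored visually from 0 (no effect) to 10 (complete control).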

[2] = tested on: purple nutsedge (Cyperus rotundus); assay: Test B pre-/postemergence
Procedure, shortened: as §1

[3] = tested on: bedstraw (Galium aparine); assay: Test B pre-/postemergence; conditions: for Bedstraw plant response rating: Preemergence
Procedure, shortened: as §1

[4] = tested on: broadleaf signalgrass (Brachiaria decumbens); assay: Test B pre-/postemergence; conditions: for B. signalgrass plant response rating: Preemergence
Procedure, shortened: as §1

[5] = tested on: wheat (Triticum aestivum); assay: Test B pre-/postemergence
Procedure, shortened: as §1

[6] = tested on: velvetleaf (Abutilon theophrasti); assay: Test B pre-/postemergence
Procedure, shortened: as §1

[7] = tested on: cocklebur (Xanthium strumarium); assay: Test B pre-/postemergence; conditions: for Cocklebur plant response rating: Preemergence
Procedure, shortened: as §1

rape (Brassica napus) = assay: Test B pre-/postemergence
Procedure, shortened: as §1

[8] = tested on: pigweed (Amaranthus retroflexus); assay: Test B pre-/postemergence
Procedure, shortened: as §1

[9] = tested on: giant foxtail (Setaria faberii); assay: Test B pre-/postemergence
Procedure, shortened: as §1

[10] = tested on: momingglory (Ipomoea hederacea); assay: Test B pre-/postemergence
Procedure, shortened: as §1

wild oat (Avena fatua) = assay: Test B pre-/postemergence
Procedure, shortened: as §1

corn (Zea mays) = assay: Test B pre-/postemergence; conditions: for Corn plant response rating: Preemergence
Procedure, shortened: as §1

[11] = tested on: blackgrass (Alopecurus myosuroides); assay: Test B pre-/postemergence; conditions: for Blackgrass plant response rating: Preemergence
Procedure, shortened: as §1

soybean (Glycine max) = assay: Test B pre-/postemergence
Procedure, shortened: as §1

[12] = tested on: sugar beet (Beta vulgaris); assay: Test B pre-/postemergence
Procedure, shortened: as §1

[13] = tested on: duck salad (Heteranthera limosa); assay: Test B flood test
Procedure, shortened: (§2)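 Read-out is a visual response score from 0 (no effect) to 10 (complete control), assigned by comparison with untreated controls. Treatment was applied at the 2-leaf stage, and plants stayed in the greenhouse for twelve to sixteen days before scoring.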

[14] = tested on: bamyardgrass (Echinochloa crus-galli); assay: Test B flood test
Procedure, shortened: as §2

rice (Oryza sativa) = assay: Test B flood test
Procedure, shortened: as §2

[15] = tested on: smallflower flatsedge (Cyperus difformis); assay: Test B flood test
Procedure, shortened: as §2

[16] = Rate 250 g/ha, Postemergence (so in the source)
[17] = Rate 62 g/ha, Postemergence (flood test)
[18] = Rate 125 g/ha, Postemergence, flood test
[19] = Rate 250 g/ha, Postemergence (flood test species)
[20] = Rate 125 g/ha, Postemergence section (flood test species)

SMILES: Cc1cnc(-c2cccc(C(F)(F)F)c2)nc1Cc1cccc(C#N)c1 [Compound 39]
- Plant response rating, Crabgrass ([1]; Rate 62 g/ha, Postemergence): 0
- Crabgrass plant response rating ([1]; Rate 62 g/ha): 0
- Plant response rating, Crabgrass ([1]; Rate 125 g/ha, Postemergence): 0
- Crabgrass plant response rating ([1]; Rate 125 g/ha): 0
- Plant response rating, Crabgrass ([1]; Rate 250 g/ha, Postemergence): 1
- Plant response rating, Crabgrass [1, 16]: 0
- Plant response rating, Nutsedge ([2]; Rate 62 g/ha, Postemergence): 0
- Nutsedge plant response rating ([2]; Rate 62 g/ha, Preemergence): 0
- Nutsedge plant response rating ([2]; Rate 125 g/ha, Postemergence): 0
- Nutsedge plant response rating ([2]; Rate 125 g/ha, Preemergence): 0
- Plant response rating, Nutsedge ([2]; Rate 250 g/ha, Postemergence): 0
- Plant response rating, Nutsedge [2, 16]: 0
- Plant response rating, Bedstraw ([3]; Rate 62 g/ha, Postemergence): 3
- Bedstraw plant response rating ([3]; Rate 62 g/ha): 0
- Plant response rating, Bedstraw ([3]; Rate 125 g/ha, Postemergence): 3
- Bedstraw plant response rating ([3]; Rate 125 g/ha): 0
- Plant response rating, Bedstraw ([3]; Rate 250 g/ha, Postemergence): 4
- Plant response rating, Bedstraw [3, 16]: 0
- Plant response rating, B. signalgrass ([4]; Rate 62 g/ha, Postemergence): 1
- B. signalgrass plant response rating ([4]; Rate 62 g/ha): 0
- Plant response rating, B. signalgrass ([4]; Rate 125 g/ha, Postemergence): 1
- B. signalgrass plant response rating ([4]; Rate 125 g/ha): 0
- Plant response rating, B. signalgrass ([4]; Rate 250 g/ha, Postemergence): 1
- Plant response rating, B. signalgrass ([4]; Rate 250 g/ha, Postemergence as printed in head r139 (second section for compounds 26-50)): 0
- Wheat plant response rating ([5]; Rate 62 g/ha, Postemergence): 0
- Wheat plant response rating ([5]; Rate 62 g/ha, Preemergence): 0
- Wheat plant response rating ([5]; Rate 125 g/ha, Postemergence): 1
- Plant response rating, Wheat ([5]; Rate 125 g/ha, Preemergence): 0
- Plant response rating, Wheat ([5]; Rate 250 g/ha, Postemergence): 1
- Plant response rating, Wheat [5, 16]: 0
- Plant response rating, Velvetleaf ([6]; Rate 62 g/ha, Postemergence): 0
- Velvetleaf plant response rating ([6]; Rate 62 g/ha, Preemergence): 0
- Velvetleaf plant response rating ([6]; Rate 125 g/ha, Postemergence): 1
- Plant response rating, Velvetleaf ([6]; Rate 125 g/ha, Preemergence): 0
- Plant response rating, Velvetleaf ([6]; Rate 250 g/ha, Postemergence): 1
- Plant response rating, Velvetleaf [6, 16]: 0
- Plant response rating, Cocklebur ([7]; Rate 62 g/ha, Postemergence): 2
- Cocklebur plant response rating ([7]; Rate 62 g/ha): 0
- Plant response rating, Cocklebur ([7]; Rate 125 g/ha, Postemergence): 2
- Cocklebur plant response rating ([7]; Rate 125 g/ha): 0
- Plant response rating, Cocklebur ([7]; Rate 250 g/ha, Postemergence): 5
- Plant response rating, Cocklebur [7, 16]: 0
- Plant response rating, Rape (rape (Brassica napus); Rate 62 g/ha, Postemergence): 1
- Rape plant response rating (rape (Brassica napus); Rate 62 g/ha, Preemergence): 0
- Rape plant response rating (rape (Brassica napus); Rate 125 g/ha, Postemergence): 1
- Rape plant response rating (rape (Brassica napus); Rate 125 g/ha, Preemergence): 0
- Plant response rating, Rape (rape (Brassica napus); Rate 250 g/ha, Postemergence): 4
- Plant response rating, Rape (rape (Brassica napus); [16]): 0
- Plant response rating, Redroot pigweed ([8]; Rate 62 g/ha, Postemergence): 2
- Redroot pigweed plant response rating ([8]; Rate 62 g/ha, Preemergence): 0
- Redroot pigweed plant response rating ([8]; Rate 125 g/ha, Postemergence): 2
- Redroot pigweed plant response rating ([8]; Rate 125 g/ha, Preemergence): 0
- Plant response rating, Redroot pigweed ([8]; Rate 250 g/ha, Postemergence): 3
- Plant response rating, Redroot pigweed [8, 16]: 0
- Plant response rating, Giant foxtail ([9]; Rate 62 g/ha, Postemergence): 0
- Giant foxtail plant response rating ([9]; Rate 62 g/ha, Preemergence): 0
- Giant foxtail plant response rating ([9]; Rate 125 g/ha, Postemergence): 1
- Giant foxtail plant response rating ([9]; Rate 125 g/ha, Preemergence): 0
- Plant response rating, Giant foxtail ([9]; Rate 250 g/ha, Postemergence): 1
- Plant response rating, Giant foxtail [9, 16]: 0
- Plant response rating, Morningglory ([10]; Rate 62 g/ha, Postemergence): 1
- Morningglory plant response rating ([10]; Rate 62 g/ha, Preemergence): 0
- Morningglory plant response rating ([10]; Rate 125 g/ha, Postemergence): 1
- Morningglory plant response rating ([10]; Rate 125 g/ha, Preemergence): 0
- Plant response rating, Morningglory ([10]; Rate 250 g/ha, Postemergence): 1
- Plant response rating, Morningglory [10, 16]: 0
- Wild oats plant response rating (wild oat (Avena fatua); Rate 62 g/ha, Postemergence): 1
- Wild oats plant response rating (wild oat (Avena fatua); Rate 62 g/ha, Preemergence): 0
- Wild oats plant response rating (wild oat (Avena fatua); Rate 125 g/ha, Postemergence): 1
- Plant response rating, Wild oats (wild oat (Avena fatua); Rate 125 g/ha, Preemergence): 0
- Plant response rating, Wild oats (wild oat (Avena fatua); Rate 250 g/ha, Postemergence): 1
- Plant response rating, Wild oats (wild oat (Avena fatua); [16]): 0
- Plant response rating, Corn (corn (Zea mays); Rate 62 g/ha, Postemergence): 1
- Corn plant response rating (corn (Zea mays); Rate 62 g/ha): 0
- Plant response rating, Corn (corn (Zea mays); Rate 125 g/ha, Postemergence): 1
- Corn plant response rating (corn (Zea mays); Rate 125 g/ha): 0
- Plant response rating, Corn (corn (Zea mays); Rate 250 g/ha, Postemergence): 1
- Plant response rating, Corn (corn (Zea mays); [16]): 0
- Plant response rating, Blackgrass ([11]; Rate 62 g/ha, Postemergence): 1
- Blackgrass plant response rating ([11]; Rate 62 g/ha): 0
- Plant response rating, Blackgrass ([11]; Rate 125 g/ha, Postemergence): 1
- Blackgrass plant response rating ([11]; Rate 125 g/ha): 0
- Plant response rating, Blackgrass ([11]; Rate 250 g/ha, Postemergence): 1
- Plant response rating, Blackgrass [11, 16]: 0
- Plant response rating, Soybean (soybean (Glycine max); Rate 62 g/ha, Postemergence): 1
- Soybean plant response rating (soybean (Glycine max); Rate 62 g/ha, Preemergence): 0
- Soybean plant response rating (soybean (Glycine max); Rate 125 g/ha, Postemergence): 1
- Plant response rating, Soybean (soybean (Glycine max); Rate 125 g/ha, Preemergence): 0
- Plant response rating, Soybean (soybean (Glycine max); Rate 250 g/ha, Postemergence): 2
- Plant response rating, Soybean (soybean (Glycine max); [16]): 0
- Plant response rating, Sugarbeets ([12]; Rate 62 g/ha, Postemergence): 7
- Sugarbeets plant response rating ([12]; Rate 62 g/ha, Preemergence): 0
- Sugarbeets plant response rating ([12]; Rate 125 g/ha, Postemergence): 9
- Plant response rating, Sugarbeets ([12]; Rate 125 g/ha, Preemergence): 0
- Plant response rating, Sugarbeets ([12]; Rate 250 g/ha, Postemergence): 10
- Plant response rating, Sugarbeets [12, 16]: 0
- Plant response rating, Ducksalad [13, 17]: 0
- Plant response rating, Ducksalad [13, 18]: 0
- Plant response rating, Ducksalad [13, 19]: 0
- Plant response rating, Barnyardgrass [14, 17]: 0
- Plant response rating, Barnyardgrass [14, 18]: 0
- Plant response rating, Barnyardgrass [14, 19]: 0
- Plant response rating, Rice (rice (Oryza sativa); [17]): 0
- Rice plant response rating (rice (Oryza sativa); [20]): 0
- Plant response rating, Rice (rice (Oryza sativa); [19]): 0
- Plant response rating, S. Flatsedge [15, 17]: 0
- S. Flatsedge plant response rating [15, 20]: 2
- Plant response rating, S. Flatsedge [15, 19]: 2
